Assay results taken from US20230278972A1, “SUBSTITUTED HALOALKYL SULFONANILIDE HERBICIDES” (FMC Corporation, priority 2020, published 2023).

Tests used:
Assay type in all cases: in vivo
[1] = test system: Ryegrass, Italian (Italian ryegrass, Lolium multiflorum); test: Test A1 preemergence, Ryegrass, Italian
Source text: (§1) Seeds of plant species selected from, blackgrass (Alopecurus myosuroides), corn (Zea mays), Foxtail, Giant (giant foxtail, Setaria faberi), goosegrass (Eleusine indica), kochia (Bassia scoparia), Oat, Wild (wild oat, Avena fatua), Pigweed, Palmer (palmer amaranth, palmer pigweed, Amaranthus palmeri), ragweed (common ragweed, Ambrosia artemisiifolia), Ryegrass, Italian (Italian ryegrass, Lolium multiflorum), soybean (Glycine max), and wheat (Triticum aestivum) were planted into a blend of loam soil and sand and treated preemergence with a directed soil spray using test chemicals formulated in a non-phytotoxic solvent mixture which included a surfactant. At the same time, plants selected from these crop and weed species and also galium (catchweed bedstraw, Galium aparine) and horseweed (Erigeron canadensis) were planted in pots containing the same blend of loam soil and sand and treated with postemergence applications of test chemicals formulated in the same manner. Plants ranged in height from 2 to 10 cm and were in the one- to two-leaf stage for the postemergence treatment. […] A dash (-) response means no test result.

[2] = test system: Pigweed, Palmer (palmer amaranth, palmer pigweed, Amaranthus palmeri); test: Test A1 preemergence, Pigweed, Palmer
Source text: as §1

rice (Oryza sativa) = test: Test B1 flooded paddy test, rice; details: 250 g ai/ha, Flood, applied to paddy water, 2-leaf stage, visually evaluated after 10 to 14 days
Source text: (§2) A dash (-) response means no test result.

[3] = test system: goosegrass (Eleusine indica); test: Test A1 postemergence, goosegrass; details: Postemergence
Source text: as §1

[4] = test system: Oat, Wild (wild oat, Avena fatua); test: Test A1 preemergence, Oat, Wild
Source text: as §1

soybean (Glycine max) [5] = test: Test A1 postemergence, soybean; details: Postemergence
Source text: as §1

[6] = test system: Oat, Wild (wild oat, Avena fatua); test: Test A1 postemergence, Oat, Wild; details: Postemergence
Source text: as §1

corn (Zea mays) [7] = test: Test A1 preemergence, corn
Source text: as §1

[8] = test system: ragweed (common ragweed, Ambrosia artemisiifolia); test: Test A1 preemergence, ragweed
Source text: as §1

[9] = test system: ragweed (common ragweed, Ambrosia artemisiifolia); test: Test A1 postemergence, ragweed; details: Postemergence
Source text: as §1

[10] = test system: blackgrass (Alopecurus myosuroides); test: Test A1 postemergence, blackgrass; details: Postemergence, 0 to 100 scale (0 no effect, 100 complete control)
Source text: as §1

[11] = test system: ducksalad (Heteranthera limosa); test: Test B1 flooded paddy test, ducksalad; details: 250 g ai/ha, Flood, applied to paddy water, 2-leaf stage, visually evaluated after 10 to 14 days
Source text: as §2

soybean (Glycine max) [12] = test: Test A1 preemergence, soybean
Source text: as §1

[13] = test system: wheat (Triticum aestivum); test: Test A1 postemergence, wheat; details: Postemergence
Source text: as §1

[14] = test system: Foxtail, Giant (giant foxtail, Setaria faberi); test: Test A1 preemergence, Foxtail, Giant
Source text: as §1

[15] = test system: Ryegrass, Italian (Italian ryegrass, Lolium multiflorum); test: Test A1 postemergence, Ryegrass, Italian; details: Postemergence
Source text: as §1

[16] = test system: goosegrass (Eleusine indica); test: Test A1 preemergence, goosegrass
Source text: as §1

[17] = test system: galium (catchweed bedstraw, Galium aparine); test: Test A1 postemergence, galium; details: Postemergence
Source text: as §1

[18] = test system: Pigweed, Palmer (palmer amaranth, palmer pigweed, Amaranthus palmeri); test: Test A1 postemergence, Pigweed, Palmer; details: Postemergence
Source text: as §1

corn (Zea mays) [19] = test: Test A1 postemergence, corn; details: Postemergence
Source text: as §1

[20] = test system: Foxtail, Giant (giant foxtail, Setaria faberi); test: Test A1 postemergence, Foxtail, Giant; details: Postemergence
Source text: as §1

[21] = test system: barnyardgrass (Echinochloa crus-galli); test: Test B1 flooded paddy test, barnyardgrass; details: 250 g ai/ha, Flood, applied to paddy water, 2-leaf stage, visually evaluated after 10 to 14 days
Source text: as §2

[22] = test system: blackgrass (Alopecurus myosuroides); test: Test A1 preemergence, blackgrass
Source text: as §1

kochia (Bassia scoparia) [23] = test: Test A1 postemergence, kochia; details: Postemergence
Source text: as §1

kochia (Bassia scoparia) [24] = test: Test A1 preemergence, kochia
Source text: as §1

[25] = test system: wheat (Triticum aestivum); test: Test A1 preemergence, wheat
Source text: as §1

[26] = 31 g ai/ha, 0 to 100 scale (0 no effect, 100 complete control)
[27] = 125 g ai/ha, 0 to 100 scale, 0 no effect, 100 complete control
[28] = 31 g ai/ha, 0 to 100 scale (0 no effect, 100 complete control), 10 days

SMILES: CCC1ON=C(c2cc(N(C(=O)OCC(C)C)S(=O)(=O)C(F)(F)F)c(C)cc2C)C1CC (centres unmarked) [Compound 348]
- Plant response rating, Ryegrass, Italian [1, 26]: 0
- Plant response rating, Ryegrass, Italian [1, 27]: 70
- Plant response rating, Pigweed, Palmer [2, 26]: 10
- Plant response rating, Pigweed, Palmer [2, 27]: 90
- Plant response rating, Rice (0 to 100 scale, 0 is no effect, 100 is complete control) (rice (Oryza sativa)): 0
- Plant response rating, Goosegrass [3, 28]: 0
- Plant response rating, Goosegrass ([3]; 125 g ai/ha, 0 to 100 scale): 30
- Plant response rating, Oat, Wild [4, 26]: 0
- Plant response rating, Oat, Wild [4, 27]: 10
- Plant response rating, Soybean (soybean (Glycine max) [5]; [28]): 50
- Plant response rating, Soybean (soybean (Glycine max) [5]; 125 g ai/ha, 0 to 100 scale): 90
- Plant response rating, Oat, Wild [6, 28]: 0
- Plant response rating, Oat, Wild ([6]; 125 g ai/ha, 0 to 100 scale): 20
- Plant response rating, Corn (corn (Zea mays) [7]; [26]): 0
- Plant response rating, Corn (corn (Zea mays) [7]; [27]): 10
- Plant response rating, Ragweed [8, 26]: 0
- Plant response rating, Ragweed [8, 27]: 10
- Plant response rating, Ragweed [9, 28]: 10
- Plant response rating, Ragweed ([9]; 125 g ai/ha, 0 to 100 scale): 60
- Plant response rating, Blackgrass ([10]; 31 g ai/ha, 10 days): 0
- Plant response rating, Blackgrass ([10]; 125 g ai/ha): 90
- Plant response rating, Ducksalad (0 to 100 scale, 0 is no effect, 100 is complete control) [11]: 40
- Plant response rating, Soybean (soybean (Glycine max) [12]; [26]): 30
- Plant response rating, Soybean (soybean (Glycine max) [12]; [27]): 40
- Plant response rating, Wheat [13, 28]: 0
- Plant response rating, Wheat ([13]; 125 g ai/ha, 0 to 100 scale): 60
- Plant response rating, Foxtail, Giant [14, 26]: 30
- Plant response rating, Foxtail, Giant [14, 27]: 90
- Plant response rating, Ryegrass, Italian [15, 28]: 0
- Plant response rating, Ryegrass, Italian ([15]; 125 g ai/ha, 0 to 100 scale): 40
- Plant response rating, Goosegrass [16, 26]: 30
- Plant response rating, Goosegrass [16, 27]: 90
- Plant response rating, Galium [17, 28]: 60
- Plant response rating, Galium ([17]; 125 g ai/ha, 0 to 100 scale): 80
- Plant response rating, Pigweed, Palmer [18, 28]: 0
- Plant response rating, Pigweed, Palmer ([18]; 125 g ai/ha, 0 to 100 scale): 70
- Plant response rating, Corn (corn (Zea mays) [19]; [28]): 0
- Plant response rating, Corn (corn (Zea mays) [19]; 125 g ai/ha, 0 to 100 scale): 20
- Plant response rating, Foxtail, Giant [20, 28]: 20
- Plant response rating, Foxtail, Giant ([20]; 125 g ai/ha, 0 to 100 scale): 30
- Plant response rating, Barnyardgrass (0 to 100 scale, 0 is no effect, 100 is complete control) [21]: 95
- Plant response rating, Blackgrass [22, 26]: 30
- Plant response rating, Blackgrass [22, 27]: 70
- Plant response rating, Kochia (kochia (Bassia scoparia) [23]; [28]): 20
- Plant response rating, Kochia (kochia (Bassia scoparia) [23]; 125 g ai/ha, 0 to 100 scale): 70
- Plant response rating, Kochia (kochia (Bassia scoparia) [24]; [26]): 0
- Plant response rating, Kochia (kochia (Bassia scoparia) [24]; [27]): 30
- Plant response rating, Wheat [25, 26]: 0
- Plant response rating, Wheat [25, 27]: 30

SMILES: Cc1c(NS(=O)(=O)C(F)(F)F)cc(C(=O)N2CCCCC2)c(C)c1C [Compound 326]
- Plant response rating, Ryegrass, Italian [1, 26]: 20
- Plant response rating, Ryegrass, Italian [1, 27]: 70
- Plant response rating, Pigweed, Palmer [2, 26]: 90
- Plant response rating, Pigweed, Palmer [2, 27]: 100
- Plant response rating, Rice (0 to 100 scale, 0 is no effect, 100 is complete control) (rice (Oryza sativa)): 0
- Plant response rating, Goosegrass [3, 28]: 0
- Plant response rating, Goosegrass ([3]; 125 g ai/ha, 0 to 100 scale): 80
- Plant response rating, Oat, Wild [4, 26]: 10
- Plant response rating, Oat, Wild [4, 27]: 10
- Plant response rating, Soybean (soybean (Glycine max) [5]; [28]): 70
- Plant response rating, Soybean (soybean (Glycine max) [5]; 125 g ai/ha, 0 to 100 scale): 70
- Plant response rating, Oat, Wild [6, 28]: 0
- Plant response rating, Oat, Wild ([6]; 125 g ai/ha, 0 to 100 scale): 0
- Plant response rating, Corn (corn (Zea mays) [7]; [26]): 0
- Plant response rating, Corn (corn (Zea mays) [7]; [27]): 90
- Plant response rating, Ragweed [8, 26]: 90
- Plant response rating, Ragweed [8, 27]: 90
- Plant response rating, Ragweed [9, 28]: 60
- Plant response rating, Ragweed ([9]; 125 g ai/ha, 0 to 100 scale): 80
- Plant response rating, Blackgrass ([10]; 31 g ai/ha, 10 days): 0
- Plant response rating, Blackgrass ([10]; 125 g ai/ha): 0
- Plant response rating, Ducksalad (0 to 100 scale, 0 is no effect, 100 is complete control) [11]: 85
- Plant response rating, Soybean (soybean (Glycine max) [12]; [26]): 40
- Plant response rating, Soybean (soybean (Glycine max) [12]; [27]): 90
- Plant response rating, Wheat [13, 28]: 0
- Plant response rating, Wheat ([13]; 125 g ai/ha, 0 to 100 scale): 0
- Plant response rating, Foxtail, Giant [14, 26]: 100
- Plant response rating, Foxtail, Giant [14, 27]: 100
- Plant response rating, Ryegrass, Italian [15, 28]: 0
- Plant response rating, Ryegrass, Italian ([15]; 125 g ai/ha, 0 to 100 scale): 30
- Plant response rating, Goosegrass [16, 26]: 90
- Plant response rating, Goosegrass [16, 27]: 90
- Plant response rating, Galium [17, 28]: 70
- Plant response rating, Galium ([17]; 125 g ai/ha, 0 to 100 scale): 100
- Plant response rating, Pigweed, Palmer [18, 28]: 40
- Plant response rating, Pigweed, Palmer ([18]; 125 g ai/ha, 0 to 100 scale): 80
- Plant response rating, Corn (corn (Zea mays) [19]; [28]): 0
- Plant response rating, Corn (corn (Zea mays) [19]; 125 g ai/ha, 0 to 100 scale): 0
- Plant response rating, Foxtail, Giant [20, 28]: 10
- Plant response rating, Foxtail, Giant ([20]; 125 g ai/ha, 0 to 100 scale): 30
- Plant response rating, Barnyardgrass (0 to 100 scale, 0 is no effect, 100 is complete control) [21]: 0
- Plant response rating, Blackgrass [22, 26]: 0
- Plant response rating, Blackgrass [22, 27]: 0
- Plant response rating, Kochia (kochia (Bassia scoparia) [23]; [28]): 30
- Plant response rating, Kochia (kochia (Bassia scoparia) [23]; 125 g ai/ha, 0 to 100 scale): 70
- Plant response rating, Kochia (kochia (Bassia scoparia) [24]; [26]): 80
- Plant response rating, Kochia (kochia (Bassia scoparia) [24]; [27]): 80
- Plant response rating, Wheat [25, 26]: 0
- Plant response rating, Wheat [25, 27]: 50
